Experiments:
Adult male C57BL/6 mice [1] = assay: Intra-amygdala KA-induced SE in mice, EEG, drug i.c.v. immediately prior to KA; assay type: in vivo; conditions: i.c.v. co-injection immediately prior to intra-amygdala KA; vs vehicle (antibody vs control IgG); lorazepam at 40 min
Protocol: (§1) Adult male C57BL/6 mice (20-25 g) were obtained from Harlan UK (Blackthorn, UK). Mice were first anesthetized using isoflurane (3-5%) and maintained normothermic by means of a feedback-controlled heat blanket (Harvard Apparatus Ltd, Kent, UK). Mice were next placed in a stereotaxic frame and three partial craniectomies performed to affix cortical skull-mounted EEG electrodes (Bilaney Consultants Ltd, Sevenoaks, UK). EEG was recorded using a Grass Comet XL digital EEG (Medivent Ltd, Lucan, Ireland). A guide cannula was affixed (coordinates from Bregma: AP = 0.94; L = 2.85 mm) and the assembly fixed in place with dental cement. Anesthesia was then discontinued and freely moving mice were placed inside a clear perspex recording chamber. EEG recordings were commenced and after establishing baseline EEG for a few minutes, an injection cannula was lowered through the guide cannula for injection of kainic acid (KA) (Ocean Produce International, Nova Scotia, Canada) into the basolateral amygdala nucleus (0.3 µg in 0.2 µl phosphate-buffered saline). Non-seizure control mice underwent the same surgical procedure but received 0.2 µl intra-amygdala vehicle. Mice were killed at different time-points (1, 4, 8 or 24 h) later and perfused with saline to remove intravascular blood components. Brains were either flash-frozen whole in 2-methylbutane at 30°C or perfused with 4% PFA for histopathology, or dissected on ice to obtain whole hippocampus or microdissected to obtain the different hippocampal subfields (CA1, DG and CA3).
Digitized EEG recordings were analyzed off-line using manual assessment and automated software. […] The duration of high-frequency (>5 Hz) high-amplitude (>2× baseline) polyspike discharges of ≥5 s duration (HAHFDs) was counted by a reviewer blind to treatment. Further EEG analysis was performed by uploading EEG into Labchart7 software (ADInstruments) to calculate the power spectral density (total power, a measure of the input signal's power (amplitude) over frequency) EEG spectrogram (spectral power against frequency and time).
All the following drugs were purchased from Sigma-Aldrich Ireland (Arklow, Ireland) and delivered by intracerebroventricular (i.c.v.) microinjection in 2 µl volume unless otherwise specified: Adenosine 5'-triphosphate (ATP) at 100 µM, Uridine-5'-triphosphate (UTP) at 100 µM, Uridine-5'-diphosphate (UDP) at 100 µM, 2-chloro-N6-cyclopentyladenosine (CCPA) 300 nM, Pyridoxal-phosphate-6-azophenyl-2,4-disulfonate (PPADS) at 50 µM, α,β- methylene- adenosine-5-triphosphate (α,β-meATP) at 0.1 nmol, 3-O-(4-benzoyl)benzyl-ATP (Bz-ATP) at 300 µM, Brillant Blue G (BBG) at 30 nM.
Lorazepam (Ativan®, Wyeth, Taplow, U.K.) (6 mg/kg) was administered intraperitoneally (i.p.) at 40 or 60 min after KA.
Next, a model of focal-onset SE was used to evaluate the contributions of ATP-gated receptors in vivo. Mice received intra-amygdala microinjection of KA to induce SE (Fig. 2C). […] The electroencephalogram (EEG) was recorded by using cranial electrodes (lower part of Fig. 2C). Seizures were curtailed after 40 min by the injection of lorazepam to minimize morbidity and mortality.

Adult male C57BL/6 mice [2] = assay: Histopathology of ipsilateral hippocampal CA3 after SE (FJB and NeuN counts); assay type: in vivo; conditions: 24 h after SE, vs vehicle; for Counts of surviving CA3 neurons (NeuN) / FJB-positive cells within the CA3 subfield (neuronal death): drug given prior to SE
Protocol: as §1
Flash-frozen brains in 2-methylbutane were sectioned at -20°C on a Leica cryostat and 12 µm sections collected at the level of dorsal hippocampus (-1.8 mm and - 2.9 mm from Bregma according to a mouse stereotaxic atlas (Paxinos and Franklin, 2001). Neuronal death was assessed using Fluoro-Jade B (FJB) staining, as previously described (Engel et al., 2010; Murphy et al., 2010). Briefly, sections were air-dried and post-fixed in formalin followed by hydrating through graded alcohols. Sections were then rinsed in distilled water and transferred to 0.006% potassium permanganate solution for 15 min. Sections were rinsed again and transferred to a 0.001% FJB solution according to manufacturer's recommendations (Chemicon Europe Ltd, Chandlers Ford, UK). After staining, sections were mounted in DPX (Sigma-Aldrich). For NeuN immunohistochemistry, sections were fixed and permeabilized, blocked in goat serum and incubated overnight with anti-NeuN antibodies (Millipore Ireland B.V., Tullagreen, Ireland) followed by incubation with goat anti-rabbit IgG antibodies coupled to AlexaFluor 568 (BioSciences Limited, Dun Laoghaire, Ireland). Sections were examined using a Nikon 2000s epifluorescence microscope under Ex/Em wavelengths of 472/520 nm (green) and 540 to 580/600 to 660 nm (red) and images captured using a Hamamatsu Orca 285 camera. Cell counts were the average of two adjacent sections for the CA3 subfield under 40x lens magnification by an observer blinded to treatment.

microglia = assay: Iba-1 immunostaining, activated microglia counts in CA3 after SE; assay type: in vivo, mice; conditions: CA3, 24 h after SE; vs vehicle
Protocol: as §1, with “Brains were either flash-frozen whole in 2-methylbutane at 30°C or perfused with 4% PFA for histopathology, or dissected on ice to obtain whole hippocampus or microdissected to obtain the different hippocampal subfields (CA1, DG and CA3).” left out

SMILES | seizure time during SE (duration of HAHFDs) (Adult male C57BL/6 mice [1]) | Counts of surviving CA3 neurons (NeuN) (Adult male C57BL/6 mice [2]) | FJB-positive cells within the CA3 subfield (neuronal death) (Adult male C57BL/6 mice [2]) | Reactive microglia (Iba-1) (microglia) | FJB-positive cells in CA3 (Adult male C57BL/6 mice [2]; injected 15 min after KA) | NeuN-positive cells in CA3 (Adult male C57BL/6 mice [2]; injected 15 min after KA)
CCOc1ccc(Nc2ccc(C(=C3C=CC(=[N+](CC)Cc4cccc(S(=O)(=O)[O-])c4)C=C3C)c3ccc(N(CC)Cc4cccc(S(=O)(=O)O)c4)cc3C)cc2)cc1 [BBG, Brilliant Blue G] | significantly reduced seizure time | significantly higher | significantly less damage | significantly reduced | – | –
Cl.Clc1cccc(-c2nnnn2Cc2cccnc2)c1Cl [A-438079, 3-[[5-(2,3-Dichlorophenyl)-1H-tetrazol-1-yl]methyl]pyridine hydrochloride] | significantly reduced seizure time | significantly higher | protect the hippocampus against SE-induced neuronal death | significantly reduced | significantly fewer | significantly more
